Source: patent publication US20250257064A1, “TRIFLUOROMETHYL-SUBSTITUTED SULFONAMIDE AS BCL-2-SELECTIVE INHIBITOR” (Chia Tai Tianqing Pharmaceutical Group Co., Ltd., priority 2018, published 2025)

Experiments:
[1] = In vitro stability in rat liver microsomes; format: in vitro ADME; conditions: 1 μM
Protocol: (§1) Experimental Example 3: In Vitro Stability in Liver Microsome
(§2) 300 μL of the final incubation system contains 30 μL of liver microsomes (protein concentration: 5 mg/mL), 30 μL of NADPH+MgCl2, 3 μL of the test compound (in acetonitrile), and 237 μL of PBS buffer (pH 7.4), wherein the proportion of the organic solvent (acetonitrile) is 1% (volume ratio). Two duplicate samples were prepared for each specie (mouse, rat and human), and each sample was 0.3 mL. Each tube which was added with 270 μL of a mixed solution of substrate and enzyme, and NADPH, after being pre-incubated at 37° C. for 5 min, was added with 30 μL of NADPH+MgCl2 and mixed. Then 50 μL of the mixture was taken at 0 min, 15 min, 30 min and 60 min, and added with 300 μL of glacial acetonitrile containing an internal standard to terminate the reaction.
(§3) 50 μL of the incubated sample was added with 300 μL of glacial acetonitrile containing an internal standard (20 ng/mL diazepam) for precipitation, vortexed for 5 min, and centrifuged (13,000 rpm, 20° C.) for 10 min. 70 μL of supernatant was taken and diluted with 70 μL of ultrapure water. After being mixed well, 1 μL of the resulting sample was injected for analysis.

[2] = In vitro stability in human liver microsomes; format: in vitro ADME; conditions: 1 μM
Protocol: as §1, §2, §3

[3] = target: T1, BCL-XL/BAK (Homo sapiens, UniProt Q07817); assay: Screening on inhibitory activity for BCL-XL/BAK binding (Cisbio HTRF kit)
T1 construct: purchased Cisbio
In short: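 Tag1-BCL-XL and Tag2-BAK (2 nM and 80 nM before mixing) were combined with compounds at final 2000–0.488 nM (4-fold, 7 points, duplicates) for 15 min at 25° C. Eu3+ anti-Tag1 and XL665 anti-Tag2 were then added for ≥2 h at 25° C. HTRF (620/665 nm) gave IC50 by four-parameter fit.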

[4] = test system: human platelet Caspase-3 activity; assay: Human platelet toxicity experiment (Caspase-3 activity assay); format: cell-based; conditions: 90 min, data normalized, reference ABT-199
Protocol: Experimental Example 6: Human Platelet Toxicity Experiment (Caspase-3 Activity Assay)
10 mL of human whole blood was collected using a heparin sodium anticoagulation tube, mixed well by turning upside down, and centrifuged at 90 g for 10 min. The supernatant was collected and centrifuged at 1950 g for 10 min. The supernatant was discarded, and the residue was resuspended in 4 mL of PBS, and centrifuged at 1190 g for 5 min, and the procedure was repeated once. The supernatant was discarded, and the platelets were resuspended in PBS and adjusted to the density of 2-3×10^8 cells/mL. Cells were seeded into a 96-well plate at a density of 2-3×10^7 cells/mL and at 100 μL/well. 50 μL of control buffer was added to each negative control well, and 50 μL of compound at a corresponding concentration was added to each compound well, so that the final concentration of the compound was 2.5 μM, 2 μM, 1 μM or 0.5 μM, followed by incubation in an incubator at 37° C. for 90 min. The liquids in the 96-well plate were transferred to 1.5 mL centrifuge tubes, respectively. The tubes were centrifuged at 4° C. and 6000 g for 5 min, and placed on ice for later use after the supernatant was discarded. 5× lysis buffer was diluted into 1× lysis buffer with water in the kit, and protease inhibitor cocktail was added at a 1:200 ratio to prepare a lysis mixture for later use. 40 μL of lysis mixture was added to each centrifuge tube, and the platelets at the bottom were resuspended using a pipette. The suspension was lysed on ice for 15-20 min and centrifuged at 4° C. and 14,000 g for 10 min. The sample was sub-packaged for later use. 10× assay buffer was diluted into 1× assay buffer with water in the kit, and substrate Ac-DEVD-AMC was added at a 1:600 ratio to prepare a reaction mixture. 5 μL of assay buffer and 40 μL of reaction mixture were added to each blank control well. 5 μL of control platelet lysate and 40 μL of reaction mixture were added to each negative control well. 5 μL of platelet lysate and 40 μL of reaction mixture were added to each compound well. In this procedure, 40 μL of reaction mixture was added at last. The resulting mixture was mixed gently, and the plate was read by a PE Envision multi-functional microplate reader (excitation: 360 nm, emission: 460 nm) once every 10 min for 6 times. Caspase-3 activity was determined based on the intensity of the released AMC fluorescence, that is the slope of the fitted line to which each well corresponds represents Caspase activity (all data were normalized and the reference was ABT-199).

[5] = test system: RS4;11 cells; assay: Inhibitory effect on proliferation of RS4;11 cells (CCK-8); format: cell-based, human; conditions: Homo sapiens, RS4-11, 72 h
In short: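 RS4;11 cells were seeded at 1×10^5 cells/mL in RPMI with 5% FBS and incubated 24 h at 37° C, 5% CO2 before compound addition in duplicate. Inhibition was calculated against untreated and blank controls. IC50 came from a four-parameter fit of log concentration versus inhibition.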

[6] = In vitro stability in mouse liver microsomes; format: in vitro ADME; conditions: 1 μM
Protocol: as §1, §2, §3

[7] = target: T2, BCL-2/BAK (Homo sapiens, UniProt P10415); assay: Screening on inhibitory activity for BCL-2/BAK binding (Cisbio HTRF kit)
T2 construct: purchased Cisbio
In short: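 HTRF competition assay: Tag1-BCL-2 and Tag2-BAK working dilutions were 5 nM and 120 nM. Compound (200–0.0488 nM final, 4-fold, 7 points, duplicates) was incubated with the proteins for 15 min at 25 °C, then with Eu-cryptate/XL665 antibodies for ≥2 h at 25 °C. IC50 was derived from a four-parameter fit.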

T1 sequence (Q07817 whole entry, species assumed): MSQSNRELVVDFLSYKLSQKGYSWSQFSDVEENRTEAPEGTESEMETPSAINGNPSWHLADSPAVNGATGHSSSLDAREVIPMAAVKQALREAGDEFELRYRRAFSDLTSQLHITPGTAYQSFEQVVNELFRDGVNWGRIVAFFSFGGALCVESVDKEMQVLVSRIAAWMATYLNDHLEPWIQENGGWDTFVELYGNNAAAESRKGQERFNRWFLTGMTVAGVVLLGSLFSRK
T2 sequence (P10415 whole entry, species assumed): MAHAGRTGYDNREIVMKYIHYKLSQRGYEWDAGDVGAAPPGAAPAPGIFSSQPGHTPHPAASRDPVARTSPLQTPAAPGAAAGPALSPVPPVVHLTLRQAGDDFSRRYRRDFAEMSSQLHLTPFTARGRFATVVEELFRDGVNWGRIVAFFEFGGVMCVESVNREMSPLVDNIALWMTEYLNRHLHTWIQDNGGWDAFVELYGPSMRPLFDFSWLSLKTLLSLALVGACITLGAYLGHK

Row | Compound | Rat Residual content after 60 min (%) [1] [%] | Human Residual content after 60 min (%) [2] [%] | IC50 [3] [nM] | human platelet Caspase-3 activity, Slope ([4]; compound concentration 1 μM) | IC50 [5] [nM] | Mouse Residual content after 60 min (%) [6] [%] | IC50 [7] [nM] | human platelet Caspase-3 activity, Slope ([4]; compound concentration 0.5 μM) | human platelet Caspase-3 activity, Slope ([4]; compound concentration 2 μM)
1 | CC1(C)CCC(CN2CCN(c3ccc(C(=O)NS(=O)(=O)c4ccc(NCC5CCOCC5)c([N+](=O)[O-])c4)c(Oc4cnc5[nH]ccc5c4)c3)CC2)=C(c2ccc(C(F)(F)F)c(F)c2)C1 [Compound 6-1, 4-(4-{[2-(3-fluoro-4-trifluoromethylphenyl)-4,4-dimethylcyclohex-1-enyl]methyl}-piperazin-1-yl)-N-({3-nitro-4-[(tetrahydro-2H-pyran-4-ylmethyl)amino]phenyl}sulfonyl)-2-(1H-pyrrolo[2,3-b]pyridin-5-yloxy)-benzamide] | 61.2 | 65.9 | 1970 | 0.45 | 2.4 | 65.3 | 5.7 | – | –
2 | CC(C)C(=O)N1CCOC(CNc2ccc(S(=O)(=O)NC(=O)c3ccc(N4CCN(CC5=C(c6ccc(C(F)(F)F)cc6Cl)CC(C)(C)CC5)CC4)cc3Oc3cnc4[nH]ccc4c3)cc2[N+](=O)[O-])C1 (centres unmarked) [Compound 10-1, 4-(4-{[2-(2-chloro-4-trifluoromethylphenyl)-4,4-dimethylcyclohex-1-enyl]methyl}-piperazin-1-yl)-N-({3-nitro-4-[((4-isobutyrylmorpholin-2-yl)methyl)amino]phenyl}sulfonyl)-2-(1H-pyrrolo[2,3-b]pyridin-5-yloxy)-benzamide] | 69.9 | 78.0 | 194 | – | 5.6 | 30.1 | 2.8 | – | –
3 | COCC(=O)N1CCO[C@H](CNc2ccc(S(=O)(=O)NC(=O)c3ccc(N4CCN(CC5=C(c6ccc(C(F)(F)F)cc6Cl)CC(C)(C)CC5)CC4)cc3Oc3cnc4[nH]ccc4c3)cc2[N+](=O)[O-])C1 [Compound 11-1] | 66.3 | 67.4 | 140 | – | 2.5 | 62.9 | 1.6 | 0.42 | 0.57
4 | CC1(C)CCC(CN2CCN(c3ccc(C(=O)NS(=O)(=O)c4ccc(NCC5CN(S(C)(=O)=O)CCO5)c([N+](=O)[O-])c4)c(Oc4cnc5[nH]ccc5c4)c3)CC2)=C(c2ccc(C(F)(F)F)cc2Cl)C1 (centres unmarked) [Compound 12-1, 4-(4-{[2-(2-chloro-4-trifluoromethylphenyl)-4,4-dimethylcyclohex-1-enyl]methyl}-piperazin-1-yl)-N-({3-nitro-4-[((4-methylsulfonylmorpholin-2-yl)methyl)amino]phenyl}sulfonyl)-2-(1H-pyrrolo[2,3-b]pyridin-5-yloxy)-benzamide] | 80.2 | 91.3 | 113 | – | 1.7 | 93.4 | 1.4 | 0.27 | 0.33
